≈ marks a conversion by molar mass, not a printed value.
Legend:
[1] = molecular target: T1, Pseudomonas aeruginosa LpxC enzyme (Pseudomonas aeruginosa, UniProt P47205); assay: IC50 assay, LpxC enzyme from P. aeruginosa; type: biochemical; settings: 0.5 nM enzyme, 25° C., pH 8.0, 20 min; ** = average of 2-8 assays
T1 construct: made in house; host or cells: E. coli
T1 sequence (P47205 1-303): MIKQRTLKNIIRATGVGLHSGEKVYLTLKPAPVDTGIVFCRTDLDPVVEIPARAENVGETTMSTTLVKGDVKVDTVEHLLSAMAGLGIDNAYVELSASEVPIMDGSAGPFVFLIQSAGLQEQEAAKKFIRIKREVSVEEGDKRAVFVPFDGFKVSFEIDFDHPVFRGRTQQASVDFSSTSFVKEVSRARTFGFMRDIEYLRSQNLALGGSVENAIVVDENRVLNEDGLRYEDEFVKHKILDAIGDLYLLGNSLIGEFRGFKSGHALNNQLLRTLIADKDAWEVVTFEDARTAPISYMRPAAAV
Procedure, shortened: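 P. aeruginosa LpxC (0.5 nM, expressed in E. coli) reacted with 0.5 uM ³H-acetyl-labelled UDP-3-O-(R-3-hydroxydecanoyl)-GlcNAc in 50 mM sodium phosphate pH 8.0 with 1 mg/ml BSA at 25 °C for 20 min. Charcoal stopped the reaction, and filtrate radioactivity was counted by scintillation after no-enzyme background subtraction.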

[2] = test system: P. aeruginosa PAO280; assay: MIC determination, P. aeruginosa PAO280; type: cell-based; settings: Pseudomonas aeruginosa, PAO280, read-out: MIC (ug/mL) P. aeruginosa PAO280
Procedure, shortened: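 Broth dilution MIC per CLSI M7-A7/M100-S18 guidelines. Strain PAO280 lacks efflux pumps MexAB-oprM, MexXY and MexZ.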

[3] = test system: P. aeruginosa UI-18; assay: MIC determination, P. aeruginosa UI-18; type: cell-based; settings: Pseudomonas aeruginosa, UI18; wild-type; * = arithmetic mean of 2-6 MIC determinations; read-out: MIC (ug/mL) P. aeruginosa UI-18
Procedure, shortened: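 MIC by broth dilution following CLSI M7-A7 and M100-S18 guidelines, tested against wild-type P. aeruginosa UI-18.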

[4] = test system: Acinetobacter baumanii/haemolyticus; assay: MIC determination, A. baumanii/haemolyticus; type: cell-based; settings: Acinetobacter baumannii; multidrug-resistant clinical isolate; * = arithmetic mean of 2-6 MIC determinations; read-out: MIC (ug/mL) A. baumanii/haemolyticus
Procedure, shortened: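 MICs were determined by CLSI broth dilution (M7-A7, M100-S18) against a multidrug-resistant clinical isolate of Acinetobacter baumanii/haemolyticus.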

[5] = test system: Enterobacter aerogenes; assay: MIC determination, E. aerogenes; type: cell-based; settings: Klebsiella aerogenes; quinolone-resistant, ESBL-expressing clinical isolate; * = arithmetic mean of 2-6 MIC determinations; read-out: MIC (ug/mL) E. aerogenes
Procedure, shortened: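 Clinical E. aerogenes isolate, quinolone-resistant and ESBL-expressing. MIC measured in vitro by dilution testing according to CLSI guidelines (M7-A7, M100-S18).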

[6] = test system: Escherichia coli EC-1; assay: MIC determination, E. coli EC-1; type: cell-based; settings: EC1, EC-1: VOGEL, * = arithmetic mean of 2-6 MIC determinations, read-out: MIC (ug/mL) E. coli EC-1
Procedure, shortened: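 Minimum inhibitory concentration against Escherichia coli EC-1 was determined in vitro by dilution susceptibility testing under CLSI M7-A7 and M100-S18 guidelines.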

[7] = test system: Klebsiella pneumoniae; assay: MIC determination, K. pneumoniae; type: cell-based; settings: ciprofloxacin-resistant, ESBL-expressing clinical isolate, * = arithmetic mean of 2-6 MIC determinations, read-out: MIC (ug/mL) K. pneumoniae
Procedure, shortened: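 MIC determined by broth dilution per CLSI M7-A7 and M100-S18 guidelines. Strain: ciprofloxacin-resistant, ESBL-expressing clinical isolate of K. pneumoniae.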

[8] = test system: Staphylococcus aureus ATCC 29213; assay: MIC determination, S. aureus ATCC 29213; type: cell-based; settings: ATCC29213, CLSI quality control reference strain, * = arithmetic mean of 2-6 MIC determinations, read-out: MIC (ug/mL) S. aureus ATCC 29213
Procedure, shortened: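 MIC was measured by dilution susceptibility testing following CLSI guidelines (M7-A7; M100-S18). The test organism is the CLSI quality-control reference strain.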

[9] = test system: Serratia marcescens; assay: MIC determination, S. marcescens; type: cell-based; settings: multidrug-resistant clinical isolate, * = arithmetic mean of 2-6 MIC determinations, read-out: MIC (ug/mL) S. marcescens
Experimental: MIC determinations: The in vitro antibacterial activity of compounds described in the Examples was evaluated by minimum inhibitory concentration (MIC) testing according to Clinical and Laboratory Standards Institute (CLSI, formerly NCCLS) guidelines. See: Clinical and Laboratory Standards Institute. Methods for Dilution Antimicrobial Susceptibility Tests for Bacteria that Grow Aerobically; Approved Standard-Seventh Edition. CLSI document M7-A7 [ISBN 1-56238-587-9]. Clinical and Laboratory Standards Institute, 940 West Valley Road, Suite 1400, Wayne, Pa. 19087-1898 USA, 2006; also Clinical and Laboratory Standards Institute. Performance Standards for Antimicrobial Susceptibility Testing; Eighteenth Informational Supplement. CLSI document M100-S18 [ISBN1-56238-653-0]. Clinical and Laboratory Standards Institute.
The following bacterial strains were used:
Serratia marcescens: Multidrug-resistant clinical isolate.

Compound	IC50 [1] [µM]	MIC [2] [µg/mL]	MIC [3] [µg/mL]	MIC [4] [µg/mL]	MIC [5] [µg/mL]	MIC [6] [µg/mL]	MIC [7] [µg/mL]	MIC [8] [µg/mL]	MIC [9] [µg/mL]
O=C(NO)C(CO)(CCO)OCc1ccc(-c2ccccc2)cc1 (stereo not shown) [Example 92]	0.0134	2 (≈ 6.04 µM)	> 64	> 64	> 64	> 64	> 64	> 64	> 64
Cn1ccnc1[C@H](O)[C@](C)(OCc1ccc(-c2ccccc2)cc1)C(=O)NO [Example 10, (2S,3S)-2-(biphenyl-4-ylmethoxy)-N,3-dihydroxy-2-methyl-3-(1-methyl-1H-imidazol-2-yl)propanamide]	0.00246	0.19 (≈ 0.498 µM)	33 (≈ 86.5 µM)	64 (≈ 168 µM)	> 64	48 (≈ 126 µM)	48 (≈ 126 µM)	48 (≈ 126 µM)	64 (≈ 168 µM)
CC(C)C[C@H](O)[C@](C)(OCc1ccc(-c2ccccc2)cc1)C(=O)NO [Example 6, (2S,3S)-2-(biphenyl-4-ylmethoxy)-N,3-dihydroxy-2,5-dimethylhexanamide]	0.16	64 (≈ 179 µM)	> 64	> 64	> 64	> 64	> 64	64 (≈ 179 µM)	> 64
Cc1cc(CNC(=O)C(C)(OCc2ccc(-c3ccc(F)cn3)cc2)C(=O)NO)no1 (stereo not shown) [Example 88, 2-{[4-(5-fluoropyridin-2-yl)benzyl]oxy}-N-hydroxy-2-methyl-N′-[(5-methylisoxazol-3-yl)methyl]malonamide]	0.00698	0.5 (≈ 1.17 µM)	64 (≈ 149 µM)	> 64	> 64	> 64	> 64	> 64	–
C[C@@](OCc1ccc(-c2ccc(F)cc2)cc1)(C(=O)NO)[C@@H](O)c1cc(CO)on1 [Example 35, (2S,3S)-2-[(4′-fluorobiphenyl-4-yl)methoxy]-N,3-dihydroxy-3-[5-(hydroxymethyl)isoxazol-3-yl]-2-methylpropanamide]	0.000695	0.03 (≈ 0.072 µM)	1 (≈ 2.4 µM)	64 (≈ 154 µM)	> 64	23 (≈ 55.2 µM)	53 (≈ 127 µM)	> 64	–
C[C@@](OCc1ccc(-c2ccc(C(F)(F)F)cn2)cc1)(C(=O)NO)[C@@H](O)c1cc(CO)on1 [Example 41, (2S,3S)-N,3-dihydroxy-3-[5-(hydroxymethyl)isoxazol-3-yl]-2-methyl-2-({4-[5-(trifluoromethyl)pyridin-2-yl]benzyl}oxy)propanamide]	0.00116	0.25 (≈ 0.535 µM)	32 (≈ 68.5 µM)	> 64	> 64	> 64	> 64	> 64	–
Cc1cc(CNC(=O)C(C)(OCc2ccc(-c3cnccn3)cc2)C(=O)NO)no1 (stereo not shown) [Example 90, N-hydroxy-2-methyl-N′-[(5-methylisoxazol-3-yl)methyl]-2-[(4-pyrazin-2-ylbenzyl)oxy]malonamide]	0.147	4 (≈ 9.72 µM)	> 64	> 64	> 64	> 64	> 64	> 64	–
C[C@@](OCc1ccc(-c2ccccc2)cc1)(C(=O)NO)[C@@H](O)c1ccno1 [Example 16, (2S,3R)-2-(biphenyl-4-ylmethoxy)-N,3-dihydroxy-3-isoxazol-5-yl-2-methylpropanamide]	0.00079	0.125 (≈ 0.339 µM)	8 (≈ 21.7 µM)	> 64	> 64	64 (≈ 174 µM)	> 64	> 64	–

Source: patent US9340493B2, “Hydroxamic acid derivatives useful as antibacterial agents” (Pfizer Inc., priority 2008, dated 2016)
